Laboratory results from PubChem BioAssay AID330 (DTP/NCI, 2004).
Where “and” joins values, the source holds several entries; their conditions need not be identical. Equal values may be shown once. Inconclusive results and toxic doses are left out. The calls were made as follows: active = survival T/C of 150% or more; inactive = T/C below 125% in these data. Square brackets hold non-standard residues; d marks the D form. Peptide text beside a SMILES is read from it. ξ: configuration not given here. ξI = CCC(C)C(N)C(=O)O

System: P388 leukemia ip, CD2F1 mice, survival T/C
Assay: NCI In Vivo Anticancer Drug Screen. Data for tumor model P388 Leukemia (intraperitoneal) in CD2F1 (CDF1) mice
Settings: endpoint: median survival time, higher = longer survival
Method in brief: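 Mice carrying the transplanted tumor received test compound or vehicle. Survival was recorded in each group, and the value is the treated-group measurement divided by that of the vehicle-treated control group.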

[1] = dose: 60.0 mg/kg/injection, schedule: Q01DX005 (ip), vehicle: saline
[2] = dose: 120.0 mg/kg/injection, schedule: Q01DX005 (ip), vehicle: saline
[3] = dose: 240.0 mg/kg/injection, schedule: Q01DX005 (ip), vehicle: saline
[4] = dose: 50.0 mg/kg/injection, schedule: Q01DX009 (ip), vehicle: Klucel (hydroxypropylcellulose) (HPC)
[5] = dose: 100.0 mg/kg/injection, schedule: Q01DX009 (ip), vehicle: Klucel (hydroxypropylcellulose) (HPC)
[6] = dose: 60.0 mg/kg/injection, schedule: Q01DX005 (ip), vehicle: Klucel (hydroxypropylcellulose) (HPC)
[7] = dose: 50.0 mg/kg/injection, schedule: Q01DX005 (ip), vehicle: Klucel (hydroxypropylcellulose) (HPC)
[8] = dose: 100.0 mg/kg/injection, schedule: Q01DX005 (ip), vehicle: Klucel (hydroxypropylcellulose) (HPC)
[9] = dose: 200.0 mg/kg/injection, schedule: Q01DX005 (ip), vehicle: Klucel (hydroxypropylcellulose) (HPC)
[10] = dose: 25.0 mg/kg/injection, schedule: Q01DX005 (ip), vehicle: Klucel (hydroxypropylcellulose) (HPC)
[11] = dose: 50.0 mg/kg/injection, schedule: Q01DX005 (ip), vehicle: saline with Tween-80
[12] = dose: 100.0 mg/kg/injection, schedule: Q01DX005 (ip), vehicle: saline with Tween-80
[13] = dose: 200.0 mg/kg/injection, schedule: Q01DX005 (ip), vehicle: saline with Tween-80
[14] = dose: 50.0 mg/kg/injection, schedule: Q01DX009 (ip), vehicle: saline with Tween-80
[15] = dose: 100.0 mg/kg/injection, schedule: Q01DX009 (ip), vehicle: saline with Tween-80
[16] = dose: 200.0 mg/kg/injection, schedule: Q01DX009 (ip), vehicle: saline with Tween-80
[17] = dose: 50.0 mg/kg/injection, schedule: Q01DX005 (ip), vehicle: saline
[18] = dose: 100.0 mg/kg/injection, schedule: Q04DX003 (ip), vehicle: saline with Tween-80
[19] = dose: 200.0 mg/kg/injection, schedule: Q04DX003 (ip), vehicle: saline with Tween-80

Measured: T/C

CCC(C)C(N)C(=O)NCC(=O)O (centres undefined) (H-[ξI]-Gly-OH)
inactive: [1] 96 % of control | [2] 96 % of control | [3] 96 % of control

COc1ccc2cc3n(cc-2c1=O)CCc1cc2c(cc1-3)OCO2
active: dose: 100.0 mg/kg/injection, schedule: Q04DX003 (ip), vehicle: water 160 % of control

O=S(=O)(Cc1ccccc1)CS(=O)(=O)Cc1ccccc1
inactive: [4] 104 % of control | [5] 106 % of control | dose: 200.0 mg/kg/injection, schedule: Q01DX009 (ip), vehicle: Klucel (hydroxypropylcellulose) (HPC) 103 % of control | dose: 400.0 mg/kg/injection, schedule: Q01DX009 (ip), vehicle: Klucel (hydroxypropylcellulose) (HPC) 101 % of control

CCOC(=O)NN(C(=O)OCC)C(C(C)=O)C(C)=O
inactive: [6] 104 % of control | dose: 120.0 mg/kg/injection, schedule: Q01DX005 (ip), vehicle: Klucel (hydroxypropylcellulose) (HPC) 101 % of control | dose: 240.0 mg/kg/injection, schedule: Q01DX005 (ip), vehicle: Klucel (hydroxypropylcellulose) (HPC) 98 % of control

CC(=O)OCC1OC(Oc2cccc(C=C(C(C)=O)C(C)=O)c2)C(OC(C)=O)C(OC(C)=O)C1OC(C)=O (centres undefined)
inactive: [7] 100 % of control | [8] 98 % of control | [9] 105 % of control

COc1ccn(C2OC(COC(=O)c3ccccc3)C(OC(=O)c3ccccc3)C2OC(=O)c2ccccc2)c(=O)n1 (centres undefined)
inactive: [10] 97 % of control | [7] 88 % of control and 93 % of control | [8] 90 % of control | [9] 92 % of control

CC(C)(CCN)c1cc(CC(C)(C)C2(C)OCCO2)no1
inactive: [11] 113 % of control | [12] 108 % of control | [13] 113 % of control

O=c1[nH]cncc1CCC1OCCO1
inactive: [1] 97 % of control | [2] 98 % of control | [3] 103 % of control

Cc1cccc(NC(=O)Nc2cccc(S(N)(=O)=O)c2)c1C
inactive: [14] 104 % of control | [15] 90 % of control | [16] 90 % of control

CC(C)(C)C(=O)C1C(=O)c2ccccc2C1=O
inactive: dose: 1.56 mg/kg/injection, schedule: Q04DX003 (ip), vehicle: Klucel (hydroxypropylcellulose) (HPC) 98 % of control | dose: 3.12 mg/kg/injection, schedule: Q04DX003 (ip), vehicle: Klucel (hydroxypropylcellulose) (HPC) 89 % of control

C=C1c2cccc(O)c2C(O)=C2C(=O)[C@]3(O)C(O)=C(C(N)=O)C(=O)[C@@H](N(C)C)[C@@H]3[C@@H](O)[C@H]12
inactive: dose: 21.6 mg/kg/injection, schedule: Q01DX005 (ip), vehicle: Klucel (hydroxypropylcellulose) (HPC) 105 % of control | [10] 105 % of control and 115 % of control | dose: 36.0 mg/kg/injection, schedule: Q01DX005 (ip), vehicle: Klucel (hydroxypropylcellulose) (HPC) 99 % of control and 106 % of control | [6] 102 % of control and 97 % of control | dose: 166.66 mg/kg/injection, schedule: Q01DX005 (ip), vehicle: Klucel (hydroxypropylcellulose) (HPC) 115 % of control | dose: 166.67 mg/kg/injection, schedule: Q01DX005 (ip), vehicle: Klucel (hydroxypropylcellulose) (HPC) 112 % of control | dose: 400.0 mg/kg/injection, schedule: Q01DX005 (ip), vehicle: Klucel (hydroxypropylcellulose) (HPC) 87 % of control

CCOC(=O)C(CCC[n+]1cc2ccccc2c2ccccc21)C(=O)OCC
inactive: [17] 106 % of control | dose: 100.0 mg/kg/injection, schedule: Q01DX005 (ip), vehicle: saline 101 % of control | dose: 200.0 mg/kg/injection, schedule: Q01DX005 (ip), vehicle: saline 101 % of control

O=C1CCN=C2C(=O)c3ccccc3C(O)=C12
inactive: dose: 25.0 mg/kg/injection, schedule: Q01DX009 (ip), vehicle: Klucel (hydroxypropylcellulose) (HPC) 115 % of control | [4] 123 % of control | [5] 121 % of control

O=C(NCCCCOc1ccccc1[N+](=O)[O-])OCc1ccccc1
inactive: [11] 101 % of control | [12] 97 % of control | [13] 101 % of control

O=C(N1CCC2(CC1)SSC1(CCN(C(=O)C(F)(F)F)CC1)S2)C(F)(F)F
inactive: [18] 87 % of control | [19] 91 % of control

CC1(C)CN2CCO[Si](CC[Si](C)(C)C)(OCC2)O1
inactive: [7] 105 % of control | [8] 105 % of control | [9] 102 % of control

COc1ccc(C2N=C(N)Nc3nc[nH]c32)c(OC)c1 (centres undefined)
inactive: dose: 50.0 mg/kg/injection, schedule: Q01DX009 (ip), vehicle: suspension in saline 102 % of control | dose: 100.0 mg/kg/injection, schedule: Q01DX009 (ip), vehicle: suspension in saline 115 % of control | dose: 200.0 mg/kg/injection, schedule: Q01DX009 (ip), vehicle: suspension in saline 109 % of control

CCN(CC)CCCC(C)NC(=O)Nc1cc(OC)cc2cccnc12 (centres undefined)
inactive: dose: 12.5 mg/kg/injection, schedule: Q01DX005 (ip), vehicle: saline 107 % of control | dose: 25.0 mg/kg/injection, schedule: Q01DX005 (ip), vehicle: saline 108 % of control | [17] 104 % of control and 106 % of control

O=C(O)C[N-]CC(=O)O.OO.[O]=[V]
inactive: dose: 3.75 mg/kg/injection, schedule: Q01DX005 (ip), vehicle: saline with Tween-80 102 % of control | dose: 7.5 mg/kg/injection, schedule: Q01DX005 (ip), vehicle: saline with Tween-80 105 % of control | dose: 15.0 mg/kg/injection, schedule: Q01DX005 (ip), vehicle: saline with Tween-80 112 % of control | dose: 30.0 mg/kg/injection, schedule: Q01DX005 (ip), vehicle: saline with Tween-80 120 % of control

CCCCCCCC(=O)Nc1cccc(C)c1C
inactive: [18] 90 % of control | [19] 95 % of control

Cc1c2c(Cc3ccccc3)nccc2c(C)c2c1c1ccccc1n2Cc1ccccc1
inactive: dose: 6.25 mg/kg/injection, schedule: Q04DX003 (ip), vehicle: distilled water + Tween-80 87 % of control | dose: 12.5 mg/kg/injection, schedule: Q04DX003 (ip), vehicle: distilled water + Tween-80 88 % of control | dose: 50.0 mg/kg/injection, schedule: Q04DX003 (ip), vehicle: distilled water + Tween-80 86 % of control

C=CCc1c2[n+](cc3c(OC)c(OC)ccc13)CCc1cc3c(cc1-2)OCO3
inactive: dose: 0.4 mg/kg/injection, schedule: Q01DX005 (ip), vehicle: saline 107 % of control and 92 % of control | dose: 0.8 mg/kg/injection, schedule: Q01DX005 (ip), vehicle: saline 99 % of control and 111 % of control | dose: 1.6 mg/kg/injection, schedule: Q01DX005 (ip), vehicle: saline 100 % of control and 103 % of control

Nc1c(Br)cc(Br)c2c1C(=O)c1c(cccc1S(=O)(=O)O)C2=O
inactive: [11] 102 % of control | [12] 98 % of control | [13] 107 % of control

Cc1nn(C(=S)S)c(C)c1N=Nc1cccc(F)c1
inactive: [11] 117 % of control | [12] 111 % of control | [13] 106 % of control

CC(C)=CCc1c2c(c(O)c3c(=O)c(-c4ccc(O)cc4O)coc13)C=CC(C)(C)O2
inactive: dose: 25.0 mg/kg/injection, schedule: Q01DX009 (ip), vehicle: saline with Tween-80 104 % of control | [14] 102 % of control | [15] 104 % of control | [16] 99 % of control

CN=C([O-])c1c(=O)o[nH][n+]1-c1ccccc1
inactive: dose: 60.0 mg/kg/injection, schedule: Q01DX005 (ip), vehicle: saline with Tween-80 95 % of control | dose: 120.0 mg/kg/injection, schedule: Q01DX005 (ip), vehicle: saline with Tween-80 98 % of control | dose: 240.0 mg/kg/injection, schedule: Q01DX005 (ip), vehicle: saline with Tween-80 94 % of control

ClC(Cl)(Cl)C(Cl)(Cl)c1ccc(C(Cl)(Cl)C(Cl)(Cl)Cl)cc1
inactive: dose: 132.0 mg/kg/injection, schedule: Q04DX003 (ip), vehicle: saline with Tween-80 100 % of control | [19] 100 % of control | dose: 300.0 mg/kg/injection, schedule: Q04DX003 (ip), vehicle: saline with Tween-80 100 % of control
